Format in all cases: functional, cell-based
One test has as its system HCT-116. Put plainly: Cytotoxicity against human HCT116 cells after 96 hrs by MTT assay. Particulars: HCT-116, 96 h.
The test system of another test is Daoy. Put plainly: Cytotoxicity against human DaOY cells after 96 hrs by MTT assay. Background: Tetrazolium dyes change colour on reduction, which living cells bring about.
Another test has as its system BGC-823. Put plainly: Cytotoxicity against human BGC823 cells after 96 hrs by MTT assay. To be noted: BGC-823, 96 h.
The subject of another test is HepG2. Description: Cytotoxicity against human HepG2 cells after 96 hrs by MTT assay. To be noted: HepG2, 96 h.
The test system of the next test is NCI-H460. Put plainly: Cytotoxicity against human NCI-H460 cells after 96 hrs by MTT assay. To be noted: NCI-H460, 96 h.

Take `CC(=O)O[C@@H]1[C@H](O)C[C@@]2(C)[C@@H](CC[C@@H](C)[C@]23Cc2c(O)cc4c(c2O3)C[C@H]2OCc3cc(O)c5c(c3[C@H](O2)[C@H]4O)O[C@]2(C5)[C@H](C)CC[C@H]3C(C)(C)[C@H](O)CC[C@@]32C)C1(C)C`: the half-maximal inhibitory concentration (IC50) (usually the midpoint of a concentration-inhibition curve) was 18 µM in the test on HCT-116; 4.2 µM in the test on Daoy; 6.6 µM in the test with BGC-823; 19.3 µM in the test on HepG2; 5.5 µM in the test with NCI-H460.

With `C[C@@H]1CC[C@H]2C(C)(C)[C@H](O)CC[C@]2(C)[C@@]12Cc1c(O)cc3c(c1O2)[C@@H]1O[C@@H](Cc2c(cc(O)c4c2O[C@]2(C4)[C@H](C)CC[C@H]4C(C)(C)[C@H](O)[C@H](O)C[C@@]42C)[C@@H]1O)OC3`, the IC50 in the test with HCT-116 was determined as 6.7 µM; with Daoy it was 2.8 µM; in the test with BGC-823, 14.2 µM; with HepG2, 11.9 µM; in the test with NCI-H460, 7.5 µM.

In the case of `C[C@@H]1CC[C@H]2C(C)(C)[C@H](O)[C@H](O)C[C@]2(C)[C@@]12Cc1c(O)cc3c(c1O2)C[C@H]1OCc2cc(O)c4c(c2[C@H](O1)[C@H]3O)O[C@]1(C4)[C@H](C)CC[C@H]2C(C)(C)[C@H](O)[C@H](O)C[C@@]21C`, the IC50 with HCT-116 was determined as 19.1 µM; in the test with Daoy, 14.6 µM; with BGC-823 it was 19.2 µM; in the test with HepG2 it was 19.3 µM; in the test on NCI-H460, 12.3 µM.

As to `CC(=O)O[C@H]1C(=O)[C@@]2(C)[C@H]([C@H](OC(=O)c3ccccc3)[C@]3(O)C[C@H](OC(=O)[C@H](O)[C@@H](NC(=O)c4ccccc4)c4ccccc4)C(C)=C1C3(C)C)[C@]1(OC(C)=O)CO[C@@H]1C[C@@H]2O` [PACLITAXEL], the half-inhibitory concentration (IC50) came to 0.038 µM in the test on HCT-116; 0.002 µM with Daoy; 0.002 µM in the test with BGC-823; 0.0102 µM in the test on HepG2; 0.004 µM with NCI-H460.

For the origin of these results see ChEMBL document CHEMBL4184108, “Bistachybotrysins A-C, three phenylspirodrimane dimers with cytotoxicity from Stachybotrys chartarum” (Bioorg Med Chem Lett, 2018).
